Laboratory results taken from DBAASP.
Converted amounts (≈) assume the structure as drawn.

Key:
Experiment in all cases: ≥ marks a high value that may be exact or a test limit, other limits are often not marked, values filed in µg/mL are converted to µM
[1] = test system: Pseudomonas aeruginosa
[2] = test system: Staphylococcus aureus
[3] = test system: Candida albicans F7-39/IDE99
[4] = test system: Bacillus subtilis 168
[5] = test system: Escherichia coli B
[6] = test system: Staphylococcus aureus NCTC 10788
[7] = test system: Candida albicans NCPF 1467
[8] = test system: Staphylococcus aureus ATCC 2592
[9] = test system: Pseudomonas aeruginosa ATCC 27853
[10] = test system: Bacillus subtilis
[11] = test system: Escherichia coli ML-35p
[12] = test system: Pseudomonas aeruginosa PAO1
[13] = test system: Candida albicans ATCC 2002
[14] = test system: Staphylococcus aureus ATCC 43300
[15] = test system: Escherichia coli NCTC 10418
[16] = test system: Pasteurella multocida
[17] = test system: Staphylococcus epidermidis
[18] = test system: Micrococcus luteus
[19] = test system: Listeria innocua
[20] = test system: Bacillus cereus
[21] = test system: Leuconostoc lactis
[22] = test system: Escherichia coli
[23] = test system: Streptococcus uberis

Row | MIC [2] | MIC [6] | MIC [7] | MIC [16] | MIC [17] | MIC [18] | MIC [19] | MIC [20] | MIC [21] | MIC [22] | MIC [23] | SMILES | also measured
1 | 4.7 µM (≈ 6.73 µg/mL) | – | – | – | – | – | – | – | – | – | – | CSCC[C@H](NC(=O)CNC(=O)[C@H](Cc1ccccc1)NC(=O)[C@H](C)N)C(=O)N[C@@H](C)C(=O)N[C@@H](CC(C)C)C(=O)N[C@@H](CCCCN)C(=O)N[C@@H](CC(C)C)C(=O)N[C@@H](CC(C)C)C(=O)N[C@@H](CCCCN)C(=O)N[C@@H](CCCCN)C(=O)N[C@H](C(=O)N[C@@H](CC(C)C)C(N)=O)C(C)C [AFGMALKLLKKVL] | MIC [1]: 38.3 µM (≈ 54.8 µg/mL); MIC [3]: 10 µM (≈ 14.3 µg/mL); MIC [4]: 1.3 µM (≈ 1.86 µg/mL); MIC [5]: 4.7 µM (≈ 6.73 µg/mL)
2 | – | 16 µM (≈ 32.4 µg/mL) | ≥ 120 µM | – | – | – | – | – | – | – | – | CC[C@H](C)[C@H](NC(=O)[C@H](C)NC(=O)CNC(=O)[C@H](Cc1ccccc1)NC(=O)[C@@H](N)Cc1ccccc1)C(=O)N[C@@H](C)C(=O)N[C@@H](C)C(=O)N[C@@H](C)C(=O)N[C@@H](CC(C)C)C(=O)N1CCC[C@H]1C(=O)N[C@@H](Cc1cnc[nH]1)C(=O)N[C@H](C(=O)N[C@H](C(=O)N[C@@H](CO)C(=O)N[C@@H](C)C(=O)N[C@H](C(=O)N[C@@H](CCCCN)C(=O)N[C@@H](CC(N)=O)C(=O)N[C@@H](C)C(=O)N[C@@H](CC(C)C)C(=O)O)[C@@H](C)CC)[C@@H](C)CC)C(C)C [FFGAIAAALPHVISAIKNAL] | –
3 | – | – | – | – | – | – | – | – | – | – | – | CC[C@H](C)[C@H](NC(=O)[C@H](C)NC(=O)[C@@H](NC(=O)[C@@H]1CCCN1C(=O)[C@H](CC(C)C)NC(=O)[C@@H](NC(=O)[C@H](CO)NC(=O)[C@@H](NC(=O)[C@H](C)NC(=O)[C@H](CCSC)NC(=O)[C@H](CCCCN)NC(=O)[C@H](CC(C)C)NC(=O)[C@@H](NC(=O)[C@@H]1CCCN1C(=O)CNC(=O)[C@@H](NC(=O)[C@@H](N)Cc1ccccc1)[C@@H](C)CC)C(C)C)[C@@H](C)O)[C@@H](C)CC)[C@@H](C)O)C(=O)N[C@H]1CSSC[C@@H](C(=O)O)NC(=O)[C@H](CCCCN)NC(=O)[C@H](CCCCN)NC(=O)[C@H](Cc2ccccc2)NC(=O)CNC(=O)[C@H](CCCCN)NC1=O [FIGPVLKMATSILPTAICKGFKKC] | MIC [8]: 1.95 µM (≈ 5 µg/mL); MIC [9]: 1.95 µM (≈ 5 µg/mL); MIC [10]: 7.79 µM (≈ 20 µg/mL); MIC [11]: 19.5 µM (≈ 50 µg/mL); MIC [12]: 3.9 µM (≈ 9.99 µg/mL); MIC [13]: 3.9 µM (≈ 9.99 µg/mL); MIC [14]: 3.9 µM (≈ 9.99 µg/mL)
4 | – | ≥ 50 µM | ≥ 150 µM | – | – | – | – | – | – | – | – | CC[C@H](C)[C@H](NC(=O)[C@H](CC(C)C)NC(=O)[C@H](CO)NC(=O)[C@@H](NC(=O)[C@H](CC(C)C)NC(=O)[C@H](C)NC(=O)[C@@H]1CCCN1C(=O)[C@@H](NC(=O)[C@H](CC(C)C)NC(=O)[C@H](Cc1ccccc1)NC(=O)[C@@H]1CCCN1C(=O)[C@H](CC(C)C)NC(=O)[C@@H](N)Cc1ccccc1)[C@@H](C)CC)[C@@H](C)O)C(=O)N[C@@H](CO)C(=O)N[C@@H](CO)C(=O)N[C@@H](CC(C)C)C(N)=O [FLPFLIPALTSLISSL] | –
5 | – | ≥ 120 µM | ≥ 160 µM | – | – | – | – | – | – | – | – | CC[C@H](C)[C@H](NC(=O)[C@H](CO)NC(=O)CNC(=O)CNC(=O)[C@@H](NC(=O)[C@H](CC(C)C)NC(=O)[C@H](CO)NC(=O)[C@@H]1CCCN1C(=O)[C@@H](NC(=O)[C@H](CC(C)C)NC(=O)[C@H](CO)NC(=O)[C@H](CC(C)C)NC(=O)[C@@H](N)Cc1ccccc1)[C@@H](C)CC)C(C)C)C(=O)N[C@@H](CO)C(=O)N[C@@H](C)C(=O)N[C@@H](Cc1ccccc1)C(=O)N[C@@H](CCCCN)C(=O)O [FLSLIPSLVGGSISAFK] | MIC [15]: ≥ 160 µM
6 | 7.3 µM (≈ 12 µg/mL) | – | – | ≥ 60.9 µM | 3.65 µM (≈ 6 µg/mL) | 3.65 µM (≈ 6 µg/mL) | 7.3 µM (≈ 12 µg/mL) | 15.2 µM (≈ 25 µg/mL) | 1.83 µM (≈ 3 µg/mL) | 30.4 µM (≈ 50 µg/mL) | 15.2 µM (≈ 25 µg/mL) | CC[C@H](C)[C@H](NC(=O)[C@@H](NC(=O)[C@H](C)NC(=O)[C@H](Cc1ccccc1)NC(=O)[C@H](CC(C)C)NC(=O)CN)C(C)C)C(=O)N[C@@H](CCCCN)C(=O)N[C@@H](CCCCN)C(=O)N[C@H](C(=O)N[C@@H](C)C(=O)N[C@@H](CO)C(=O)N[C@H](C(=O)N[C@H](C(=O)N[C@@H](CCCCN)C(=O)NCC(=O)N[C@@H](CC(C)C)C(N)=O)[C@@H](C)CC)C(C)C)C(C)C [GLFAVIKKVASVIKGL] | –
7 | 15.5 µM (≈ 25 µg/mL) | – | – | ≥ 61.9 µM | 15.5 µM (≈ 25 µg/mL) | 7.43 µM (≈ 12 µg/mL) | ≥ 61.9 µM | 15.5 µM (≈ 25 µg/mL) | 1.86 µM (≈ 3 µg/mL) | > 61.9 µM | 7.43 µM (≈ 12 µg/mL) | CC[C@H](C)[C@H](NC(=O)[C@H](CC(=O)O)NC(=O)[C@H](Cc1ccccc1)NC(=O)[C@H](CC(C)C)NC(=O)CN)C(=O)N[C@H](C(=O)N[C@@H](CCCCN)C(=O)N[C@@H](CCCCN)C(=O)N[C@H](C(=O)N[C@@H](C)C(=O)N[C@@H](CO)C(=O)N[C@H](C(=O)N[C@H](C(=O)NCC(=O)NCC(=O)N[C@@H](CC(C)C)C(N)=O)C(C)C)C(C)C)C(C)C)[C@@H](C)CC [GLFDIIKKVASVVGGL] | –
8 | 28.8 µM (≈ 50 µg/mL) | – | – | ≥ 57.5 µM | ≥ 57.5 µM | ≥ 57.5 µM | ≥ 57.5 µM | ≥ 57.5 µM | 6.9 µM (≈ 12 µg/mL) | > 57.5 µM | ≥ 57.5 µM | CC[C@H](C)[C@H](NC(=O)[C@H](CO)NC(=O)CNC(=O)[C@H](C)NC(=O)[C@@H](NC(=O)[C@H](Cc1cnc[nH]1)NC(=O)CNC(=O)[C@H](C)NC(=O)[C@@H](NC(=O)[C@H](CCCCN)NC(=O)[C@H](CCCCN)NC(=O)[C@@H](NC(=O)[C@@H](NC(=O)[C@H](CC(=O)O)NC(=O)[C@H](Cc1ccccc1)NC(=O)[C@H](CC(C)C)NC(=O)CN)[C@@H](C)CC)C(C)C)[C@@H](C)CC)[C@@H](C)CC)C(N)=O [GLFDIVKKIAGHIAGSI] | –
9 | 3.53 µM (≈ 6 µg/mL) | – | – | ≥ 58.8 µM | 3.53 µM (≈ 6 µg/mL) | 7.05 µM (≈ 12 µg/mL) | 14.7 µM (≈ 25 µg/mL) | 7.05 µM (≈ 12 µg/mL) | 3.53 µM (≈ 6 µg/mL) | 29.4 µM (≈ 50 µg/mL) | 7.05 µM (≈ 12 µg/mL) | CC[C@H](C)[C@H](NC(=O)[C@@H](NC(=O)[C@H](CC(=O)O)NC(=O)[C@H](Cc1ccccc1)NC(=O)[C@H](CC(C)C)NC(=O)CN)C(C)C)C(=O)N[C@@H](C)C(=O)N[C@@H](CCCCN)C(=O)N[C@H](C(=O)N[C@@H](C)C(=O)N[C@@H](CO)C(=O)N[C@H](C(=O)N[C@H](C(=O)N[C@@H](CCCCN)C(=O)N[C@@H](CCCCN)C(=O)N[C@@H](CC(C)C)C(N)=O)[C@@H](C)CC)C(C)C)C(C)C [GLFDVIAKVASVIKKL] | –
10 | > 100 µM | – | – | – | – | – | – | – | – | – | – | CC[C@H](C)[C@H](NC(=O)[C@H](C)NC(=O)[C@H](C)NC(=O)[C@H](CC(C)C)NC(=O)[C@@H](NC(=O)[C@H](CCCCN)NC(=O)[C@H](CCCNC(=N)N)NC(=O)[C@@H]1CCCN1C(=O)[C@H](CC(C)C)NC(=O)CN)[C@@H](C)CC)C(=O)N[C@@H](C)C(=O)N[C@@H](CCCCN)C(=O)N[C@@H](CCCCN)C(=O)N[C@@H](CCCCN)C(=O)NCC(=O)N[C@@H](CCCCN)C(=O)N[C@H]1CSSC[C@@H](C(=O)O)NC(=O)[C@H](CCCCN)NC(=O)[C@H](C)NC(=O)[C@H](C(C)C)NC(=O)[C@H](CC(C)C)NC(=O)[C@H](CCCCN)NC(=O)[C@H](CC(C)C)NC(=O)[C@@H]2CCCN2C(=O)CNC(=O)[C@H](CCCCN)NC1=O [GLPRKILAAIAKKKGKCKGPLKLVAKC] | MIC [1]: > 100 µM; MIC [3]: ≥ 50 µM; MIC [10]: 4.2 µM (≈ 11.9 µg/mL); MIC [5]: ≥ 100 µM
11 | – | 4.28 µM (≈ 8 µg/mL) | 8.55 µM (≈ 16 µg/mL) | – | – | – | – | – | – | – | – | CC[C@H](C)[C@H](NC(=O)CNC(=O)[C@@H]1CCCN1C(=O)[C@H](CC(C)C)NC(=O)[C@H](C)NC(=O)[C@H](CC(N)=O)NC(=O)[C@H](CCCCN)NC(=O)[C@H](Cc1ccccc1)NC(=O)[C@H](C)NC(=O)[C@H](CO)NC(=O)[C@H](CC(C)C)NC(=O)[C@@H](NC(=O)CN)C(C)C)C(=O)N[C@@H](CCSC)C(=O)N[C@@H](CCCCN)C(=O)N[C@H](C(=O)N[C@H](C(=O)N[C@H](C(N)=O)C(C)C)[C@@H](C)CC)[C@@H](C)CC [GVLSAFKNALPGIMKIIV] | MIC [15]: ≥ 34.2 µM
